In patent US11312724B2 (ASCENTAGE PHARMA (SUZHOU) CO., LTD., priority 2021, dated 2022):
pIC50: −log10 of the molar value.

Experiments:
[1] = Mouse PK studies, single i.v. and p.o. dose; format: in vivo, CD1 mice; conditions: male, CD1, mouse, plasma; for half-life: terminal half-life
[2] = tested on: NCI-H358 cell; assay: Cell proliferation assay (Celltiter-Glo), NCI-H358; format: cell-based; conditions: Homo sapiens, NCI-H358, 72 h, 3 days
Experimental: (§1) Cell Proliferation Assay:
(§2) NCI-H358 cell and MIA PaCa-2 cell was cultured in RPMI-1640 supplemented with 10% FBS in humidified incubator at 37° C., 5% CO2. To asses the effect of Compounds of the Disclosure on cell proliferation, exponentially growing cells (5000 cells/well) were plated onto 96-well plates. After cell seeding, a representative Compounds of the Disclosure were added to the cell media (in concentrations ranging from 0 to 10 μM, 3/dilution series). After 3 days, 30 μL Celltiter-Glo reagent was added, and the luminescent signal was determined according to supplier's instruction. The dose response curves and IC50 values were generated using Prism.

[3] = tested on: MIA PaCa-2 cell; assay: Cell proliferation assay (Celltiter-Glo), MIA PaCa-2; format: cell-based; conditions: Homo sapiens, MIA PaCa-2, 72 h, 3 days
Experimental: as §1, §2

| SMILES | pIC50 [2] | pIC50 [3] | also measured |
| --- | --- | --- | --- |
| C=CC(=O)N1CCN(c2nc(OC[C@@H]3CCCN3C)nc3c2CC[C@@]2(CCc4c(Cl)cccc42)C3)C[C@@H]1CC#N [Cpd. No. 53, 2-((S)-1-acryloyl-4-((R)-4-chloro-2′-(((S)-1-methylpyrrolidin-2-yl)methoxy)-2,3,5′,8′-tetrahydro-6′H-spiro[indene-1,7′-quinazolin]-4′-yl)piperazin-2-yl)acetonitrile] | 8.60 | 8.96 | AUC(0-inf) ([1]; 2 mg/kg, IV 2 mpk): 1.2 µg·h/mL; AUC(0-t) ([1]; 2 mg/kg, IV 2 mpk): 1.2 µg·h/mL; MRT inf ([1]; 2 mg/kg, IV 2 mpk): 0.824 h; half-life ([1]; 2 mg/kg, IV 2 mpk): 1.45 h; Vd ([1]; 2 mg/kg, IV 2 mpk, read-out: Vss): 1.37 L/kg; AUC(0-inf) ([1]; 10 mg/kg, PO 10 mpk): 2.9 µg·h/mL; AUC(0-t) ([1]; 10 mg/kg, PO 10 mpk): 2.65 µg·h/mL; Cmax ([1]; 10 mg/kg, PO 10 mpk): 0.856 µg/mL; MRT inf ([1]; 10 mg/kg, PO 10 mpk): 3.26 h; half-life ([1]; 10 mg/kg, PO 10 mpk): 2.39 h; bioavailability ([1]; 10 mg/kg, PO 10 mpk vs IV 2 mpk): 48.2% |
| C=C(F)C(=O)N1CCN(c2nc(OCC34CCCN3CCC4)nc3c2CC[C@@]2(CCc4c(Cl)cccc42)C3)C[C@@H]1CC#N [Cpd. No. 45, 2-((S)-4-((R)-4-chloro-2′-((tetrahydro-1H-pyrrolizin-7a(5H)-yl)methoxy)-2,3,5′,8′-tetrahydro-6′H-spiro[indene-1,7′-quinazolin]-4′-yl)-1-(2-fluoroacryloyl)piperazin-2-yl)acetonitrile] | 8.12 | 8.55 | – |
| C=CC(=O)N1CCN(c2nc(OC[C@@H]3CN(C)CCO3)nc3c2CCC2(CCCc4ccccc42)C3)C[C@@H]1CC#N (stereo partly drawn) [Cpd. No. 20, 2-((2S)-1-acryloyl-4-(2′-(((S)-4-methylmorpholin-2-yl)methoxy)-3,4,5′,8′-tetrahydro-2H,6′H-spiro[naphthalene-1,7′-quinazolin]-4′-yl)piperazin-2-yl)acetonitrile] | 7.14 | 7.34 | – |
| C=CC(=O)N1CCN(c2nc(OCCCN(C)C)nc3c2CCC2(CCCc4ccccc42)C3)C[C@@H]1CC#N (stereo partly drawn) [Cpd. No. 17, 2-((2S)-1-acryloyl-4-(2′-(3-(dimethylamino)propoxy)-3,4,5′,8′-tetrahydro-2H,6′H-spiro[naphthalene-1,7′-quinazolin]-4′-yl)piperazin-2-yl)acetonitrile] | 7.00 | 7.27 | – |
| C=CC(=O)N1CCN(c2nc(OC[C@@H]3CCCN3C)nc3c2CCC2(COCc4cccc(F)c42)C3)C[C@@H]1CC#N (stereo partly drawn) [Cpd. No. 27, 2-((2S)-1-acryloyl-4-(5-fluoro-2′-(((S)-1-methylpyrrolidin-2-yl)methoxy)-5′,8′-dihydro-6′H-spiro[isochromane-4,7′-quinazolin]-4′-yl)piperazin-2-yl)acetonitrile] | 7.26 | 7.72 | – |
| C=CC(=O)N1CCN(c2nc(OC[C@@H]3CCCN3C)nc3c2CCC2(CCCc4ccccc42)C3)CC1 (stereo partly drawn) [Cpd. No. 7, 1-(4-(2′-(((S)-1-methylpyrrolidin-2-yl)methoxy)-3,4,5′,8′-tetrahydro-2H,6′H-spiro[naphthalene-1,7′-quinazolin]-4′-yl)piperazin-1-yl)prop-2-en-1-one] | 5.86 | 6.07 | – |
| C=C(F)C(=O)N1CCN(c2nc(OC[C@@H]3CCCN3C)nc3c2CCC2(CCCc4ccccc42)C3)C[C@@H]1CC#N (stereo partly drawn) [Cpd. No. 13, 2-((2S)-1-(2-fluoroacryloyl)-4-(2′-(((S)-1-methylpyrrolidin-2-yl)methoxy)-3,4,5′,8′-tetrahydro-2H,6′H-spiro[naphthalene-1,7′-quinazolin]-4′-yl)piperazin-2-yl)acetonitrile] | 6.54 | 6.66 | – |
